For data set [1], the system named is SH-SY5Y cells. Put plainly: AK (adenylate kinase) release ToxiLight cytotoxicity assay. Note: reference of the scale not given here. To be noted: PKIS2 primary screening.
Data set [2] has as its system SH-SY5Y cells. Nature of the data set: Nuclear count from microscopy images (cellular growth and toxicity). Note: reference of the scale not given here. As to conditions: PKIS2 primary screening.
Data set [3] addresses TGFBR2 (Homo sapiens, UniProt P37173). As to conditions: cited from earlier work.
The target of data set [4] is CSNK1D (Homo sapiens, UniProt P48730). To be noted: cited from earlier work.
Data set [5] deals with BMPR1B (Homo sapiens, UniProt O00238). As to conditions: cited from earlier work.
Data set [6] concerns the target T1, PRKD1 (Homo sapiens, UniProt Q15139).
T1 sequence (Q15139 1-912): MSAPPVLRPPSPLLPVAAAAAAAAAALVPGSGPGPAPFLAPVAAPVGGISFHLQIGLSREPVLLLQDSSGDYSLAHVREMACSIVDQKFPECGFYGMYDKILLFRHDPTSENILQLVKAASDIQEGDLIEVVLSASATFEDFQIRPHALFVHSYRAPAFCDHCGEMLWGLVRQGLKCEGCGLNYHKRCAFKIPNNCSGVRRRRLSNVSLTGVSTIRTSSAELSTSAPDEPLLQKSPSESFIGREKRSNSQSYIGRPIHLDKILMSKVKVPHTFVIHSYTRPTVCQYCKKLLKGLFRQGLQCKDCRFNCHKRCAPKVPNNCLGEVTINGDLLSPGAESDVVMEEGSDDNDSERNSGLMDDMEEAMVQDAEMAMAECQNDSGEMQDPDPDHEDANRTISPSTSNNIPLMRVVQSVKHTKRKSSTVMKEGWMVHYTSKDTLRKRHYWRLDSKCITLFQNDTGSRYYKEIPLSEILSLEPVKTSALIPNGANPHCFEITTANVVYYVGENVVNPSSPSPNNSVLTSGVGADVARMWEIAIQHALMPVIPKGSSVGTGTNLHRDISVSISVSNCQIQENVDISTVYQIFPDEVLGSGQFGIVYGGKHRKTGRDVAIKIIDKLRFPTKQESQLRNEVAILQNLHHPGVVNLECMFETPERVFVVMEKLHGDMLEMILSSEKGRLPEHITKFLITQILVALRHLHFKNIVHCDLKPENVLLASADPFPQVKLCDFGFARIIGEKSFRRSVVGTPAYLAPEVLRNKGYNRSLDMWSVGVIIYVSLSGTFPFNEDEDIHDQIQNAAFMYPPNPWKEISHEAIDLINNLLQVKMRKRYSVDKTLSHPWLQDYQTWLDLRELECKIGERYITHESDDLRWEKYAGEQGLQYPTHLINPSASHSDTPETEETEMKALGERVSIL
As to conditions: cited from earlier work.

Data set [7] deals with MTOR (Homo sapiens, UniProt P42345). To be noted: cited from earlier work.
The target of data set [8] is CIT (Homo sapiens, UniProt O14578). As to conditions: cited from earlier work.
The target in data set [9] is MINK1/MINK (Homo sapiens, UniProt Q8N4C8). As to conditions: cited from earlier work.
Data set [10] has as its target STK10/LOK (Homo sapiens, UniProt O94804). As to conditions: cited from earlier work.
Data set [11] deals with MAPK9/JNK2 (Homo sapiens, UniProt P45984). To be noted: cited from earlier work.
Data set [12] has as its target MAPK10/JNK3 (Homo sapiens, UniProt P53779). As to conditions: cited from earlier work.
Data set [13] deals with T2, TGFBR1 (Homo sapiens, UniProt P36897).
T2 sequence (P36897 34-503): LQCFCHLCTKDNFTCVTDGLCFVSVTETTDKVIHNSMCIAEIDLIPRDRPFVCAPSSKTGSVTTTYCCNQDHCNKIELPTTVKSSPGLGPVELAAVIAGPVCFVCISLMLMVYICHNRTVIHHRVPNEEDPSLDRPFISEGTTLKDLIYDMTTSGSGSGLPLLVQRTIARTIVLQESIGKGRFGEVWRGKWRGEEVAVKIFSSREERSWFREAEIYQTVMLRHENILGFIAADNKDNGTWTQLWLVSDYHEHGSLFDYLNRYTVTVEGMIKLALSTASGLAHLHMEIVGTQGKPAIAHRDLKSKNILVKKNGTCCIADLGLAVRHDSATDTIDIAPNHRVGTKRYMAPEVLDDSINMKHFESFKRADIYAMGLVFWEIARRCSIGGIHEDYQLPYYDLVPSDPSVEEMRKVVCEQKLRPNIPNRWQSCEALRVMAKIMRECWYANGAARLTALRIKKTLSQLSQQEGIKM
To be noted: cited from earlier work.

For data set [14], the system named is ALK5/TGFBR1. To be noted: cited from earlier work.

CIT, sequence (O14578 whole entry): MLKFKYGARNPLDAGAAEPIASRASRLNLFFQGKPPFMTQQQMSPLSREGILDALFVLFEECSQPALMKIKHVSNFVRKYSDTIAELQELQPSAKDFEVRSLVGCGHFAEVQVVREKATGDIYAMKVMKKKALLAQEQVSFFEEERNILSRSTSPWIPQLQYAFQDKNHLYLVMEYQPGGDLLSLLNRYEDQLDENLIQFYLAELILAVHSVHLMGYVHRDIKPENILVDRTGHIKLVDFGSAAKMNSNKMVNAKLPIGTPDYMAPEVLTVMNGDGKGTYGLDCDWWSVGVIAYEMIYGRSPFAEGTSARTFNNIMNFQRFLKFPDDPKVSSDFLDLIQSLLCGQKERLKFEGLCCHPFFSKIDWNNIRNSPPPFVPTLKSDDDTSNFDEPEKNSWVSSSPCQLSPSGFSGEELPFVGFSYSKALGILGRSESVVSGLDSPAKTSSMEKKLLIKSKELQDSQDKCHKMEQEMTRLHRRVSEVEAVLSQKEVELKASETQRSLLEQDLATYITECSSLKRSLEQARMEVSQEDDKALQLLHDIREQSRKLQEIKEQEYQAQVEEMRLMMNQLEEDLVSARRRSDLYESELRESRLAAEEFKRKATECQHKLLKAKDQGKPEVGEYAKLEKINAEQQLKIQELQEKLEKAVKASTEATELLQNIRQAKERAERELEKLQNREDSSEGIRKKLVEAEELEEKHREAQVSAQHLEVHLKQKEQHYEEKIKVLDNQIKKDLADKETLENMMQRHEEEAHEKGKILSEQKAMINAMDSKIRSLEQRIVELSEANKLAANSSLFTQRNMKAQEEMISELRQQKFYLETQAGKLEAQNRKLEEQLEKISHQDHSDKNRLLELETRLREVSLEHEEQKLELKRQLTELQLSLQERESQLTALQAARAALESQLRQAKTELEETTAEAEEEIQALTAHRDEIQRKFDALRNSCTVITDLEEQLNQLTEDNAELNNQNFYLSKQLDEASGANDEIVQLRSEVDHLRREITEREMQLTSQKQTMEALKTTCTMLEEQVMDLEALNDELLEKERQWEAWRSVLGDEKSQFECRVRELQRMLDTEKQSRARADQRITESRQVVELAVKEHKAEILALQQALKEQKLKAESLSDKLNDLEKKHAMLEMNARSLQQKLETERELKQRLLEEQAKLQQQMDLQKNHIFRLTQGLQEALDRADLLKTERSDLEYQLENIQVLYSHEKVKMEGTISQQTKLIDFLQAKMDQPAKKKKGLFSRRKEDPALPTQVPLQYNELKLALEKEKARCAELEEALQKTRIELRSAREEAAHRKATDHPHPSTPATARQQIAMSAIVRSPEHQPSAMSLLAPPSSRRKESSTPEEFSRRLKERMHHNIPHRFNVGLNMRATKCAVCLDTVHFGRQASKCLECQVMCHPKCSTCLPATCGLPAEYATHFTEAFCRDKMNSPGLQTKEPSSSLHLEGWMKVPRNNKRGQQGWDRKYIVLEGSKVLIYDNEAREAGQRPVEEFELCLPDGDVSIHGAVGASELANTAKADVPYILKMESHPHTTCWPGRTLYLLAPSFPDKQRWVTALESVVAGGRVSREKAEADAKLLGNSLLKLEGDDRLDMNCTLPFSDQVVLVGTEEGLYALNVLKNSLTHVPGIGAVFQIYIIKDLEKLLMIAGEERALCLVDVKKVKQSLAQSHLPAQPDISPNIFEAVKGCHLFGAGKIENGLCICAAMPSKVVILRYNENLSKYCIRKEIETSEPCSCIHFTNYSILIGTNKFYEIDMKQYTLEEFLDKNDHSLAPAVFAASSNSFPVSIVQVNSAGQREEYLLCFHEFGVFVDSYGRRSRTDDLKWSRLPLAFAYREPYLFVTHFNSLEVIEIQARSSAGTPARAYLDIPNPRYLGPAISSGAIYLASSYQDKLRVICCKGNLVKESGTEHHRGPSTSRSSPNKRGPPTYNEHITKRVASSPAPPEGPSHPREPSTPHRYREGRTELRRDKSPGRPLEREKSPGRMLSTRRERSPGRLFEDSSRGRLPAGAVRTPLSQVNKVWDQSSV
BMPR1B, sequence (O00238 14-502): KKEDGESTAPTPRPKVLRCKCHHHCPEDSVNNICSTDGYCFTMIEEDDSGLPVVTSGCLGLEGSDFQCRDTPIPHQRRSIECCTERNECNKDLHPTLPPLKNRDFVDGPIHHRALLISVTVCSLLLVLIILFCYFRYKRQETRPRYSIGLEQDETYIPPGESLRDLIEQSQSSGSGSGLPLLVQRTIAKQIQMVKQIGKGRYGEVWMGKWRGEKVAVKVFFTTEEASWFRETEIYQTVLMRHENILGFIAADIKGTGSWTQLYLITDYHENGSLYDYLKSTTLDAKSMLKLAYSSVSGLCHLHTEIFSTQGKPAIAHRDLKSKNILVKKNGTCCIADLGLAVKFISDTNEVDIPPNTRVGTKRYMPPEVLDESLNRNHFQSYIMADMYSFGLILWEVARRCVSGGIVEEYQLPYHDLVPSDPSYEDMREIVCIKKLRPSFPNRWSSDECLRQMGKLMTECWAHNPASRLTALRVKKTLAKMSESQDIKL
TGFBR2, sequence (P37173 23-567): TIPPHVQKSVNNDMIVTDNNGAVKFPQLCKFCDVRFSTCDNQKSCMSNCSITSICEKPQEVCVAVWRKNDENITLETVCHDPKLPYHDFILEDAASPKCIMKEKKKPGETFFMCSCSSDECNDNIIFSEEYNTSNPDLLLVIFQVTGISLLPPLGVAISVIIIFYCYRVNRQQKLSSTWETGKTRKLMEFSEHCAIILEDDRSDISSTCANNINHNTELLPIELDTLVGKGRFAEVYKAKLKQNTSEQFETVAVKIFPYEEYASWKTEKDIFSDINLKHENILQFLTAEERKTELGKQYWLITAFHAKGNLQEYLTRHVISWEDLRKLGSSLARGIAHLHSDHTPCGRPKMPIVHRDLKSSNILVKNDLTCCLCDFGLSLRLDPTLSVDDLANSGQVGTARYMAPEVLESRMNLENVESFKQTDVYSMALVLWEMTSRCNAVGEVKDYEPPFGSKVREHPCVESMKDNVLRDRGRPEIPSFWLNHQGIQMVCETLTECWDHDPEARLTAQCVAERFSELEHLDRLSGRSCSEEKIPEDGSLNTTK
CSNK1D, sequence (P48730 whole entry): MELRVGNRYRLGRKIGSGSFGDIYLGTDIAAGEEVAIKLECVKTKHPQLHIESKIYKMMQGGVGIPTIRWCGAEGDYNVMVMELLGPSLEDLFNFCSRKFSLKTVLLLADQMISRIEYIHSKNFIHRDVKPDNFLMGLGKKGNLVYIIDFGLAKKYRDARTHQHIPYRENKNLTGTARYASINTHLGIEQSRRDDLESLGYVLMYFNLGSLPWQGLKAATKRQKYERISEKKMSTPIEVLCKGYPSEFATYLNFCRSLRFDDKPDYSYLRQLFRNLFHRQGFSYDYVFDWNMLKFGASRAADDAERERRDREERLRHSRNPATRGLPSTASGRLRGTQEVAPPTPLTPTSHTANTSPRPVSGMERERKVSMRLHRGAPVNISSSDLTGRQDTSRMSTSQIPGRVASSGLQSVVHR
MAPK10/JNK3, sequence (P53779 whole entry): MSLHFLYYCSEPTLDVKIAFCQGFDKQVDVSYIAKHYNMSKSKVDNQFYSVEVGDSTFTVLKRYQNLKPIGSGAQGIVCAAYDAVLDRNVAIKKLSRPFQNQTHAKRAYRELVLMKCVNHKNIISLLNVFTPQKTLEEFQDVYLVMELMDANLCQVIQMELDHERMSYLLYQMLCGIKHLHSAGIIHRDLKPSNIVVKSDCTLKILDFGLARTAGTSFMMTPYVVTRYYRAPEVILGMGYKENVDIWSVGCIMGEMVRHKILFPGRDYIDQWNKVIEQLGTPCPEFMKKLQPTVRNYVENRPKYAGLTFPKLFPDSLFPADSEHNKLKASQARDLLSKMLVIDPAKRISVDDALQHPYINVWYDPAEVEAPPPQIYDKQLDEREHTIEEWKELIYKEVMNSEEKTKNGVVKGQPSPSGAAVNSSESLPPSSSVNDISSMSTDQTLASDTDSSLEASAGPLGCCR
STK10/LOK, sequence (O94804 whole entry): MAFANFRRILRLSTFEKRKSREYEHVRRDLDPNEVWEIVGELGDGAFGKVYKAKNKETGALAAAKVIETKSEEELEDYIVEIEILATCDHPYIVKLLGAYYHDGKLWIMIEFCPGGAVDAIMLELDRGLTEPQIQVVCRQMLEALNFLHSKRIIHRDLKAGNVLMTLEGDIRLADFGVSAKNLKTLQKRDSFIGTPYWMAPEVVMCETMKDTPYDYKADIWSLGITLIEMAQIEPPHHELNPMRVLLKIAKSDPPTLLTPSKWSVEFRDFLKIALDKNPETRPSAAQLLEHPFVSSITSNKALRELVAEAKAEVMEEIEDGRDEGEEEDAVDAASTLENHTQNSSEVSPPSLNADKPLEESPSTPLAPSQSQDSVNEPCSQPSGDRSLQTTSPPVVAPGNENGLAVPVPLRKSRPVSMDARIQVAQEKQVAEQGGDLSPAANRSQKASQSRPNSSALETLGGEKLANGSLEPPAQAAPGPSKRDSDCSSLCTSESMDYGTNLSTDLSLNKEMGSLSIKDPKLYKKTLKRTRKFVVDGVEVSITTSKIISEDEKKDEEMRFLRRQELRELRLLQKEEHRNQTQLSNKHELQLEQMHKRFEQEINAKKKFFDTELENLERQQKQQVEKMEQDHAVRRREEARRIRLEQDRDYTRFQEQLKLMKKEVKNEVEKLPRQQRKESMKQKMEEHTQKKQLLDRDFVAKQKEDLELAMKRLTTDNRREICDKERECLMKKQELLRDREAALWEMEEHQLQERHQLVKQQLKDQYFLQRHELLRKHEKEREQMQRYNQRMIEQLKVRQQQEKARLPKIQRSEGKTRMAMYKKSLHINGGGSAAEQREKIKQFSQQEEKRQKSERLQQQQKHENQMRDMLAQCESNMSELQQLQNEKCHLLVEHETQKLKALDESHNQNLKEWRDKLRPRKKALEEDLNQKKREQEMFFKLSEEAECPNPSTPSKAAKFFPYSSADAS

Compound `Cc1cccc(-c2nc(Nc3ccncc3)c3sccc3n2)n1` [GW869641] came in with an AK in [1] of 80.75. Besides, the “Nuclear Count” value in data set [2] stood at 70.17. Also, in data set [3], the “KINOMEscan binding TGFBR2” value is recorded as 95.6%. Besides, in [4], the “KINOMEscan binding CSNK1D” value is reported as 90%. Further, the “KINOMEscan binding BMPR1B” value in data set [5] was 82%. Further, the “KINOMEscan binding PRKD1” value in data set [6] is 99.3%. In data set [7], the “KINOMEscan binding MTOR” value is recorded as 75%. In [8], the “KINOMEscan binding CIT” value is 96.6%.

With `Cc1cc(Nc2nc(-c3cccc(C)n3)nc3ccccc23)ccn1` [GW872411], the “KINOMEscan binding MINK1/MINK” value in [9] is on record as 1%. Moreover, the “KINOMEscan binding STK10/LOK” value in [10] is listed as 0%. The AK in [1] was found to be 69.93. Further, the “Nuclear Count” value in data set [2] was 94.17. Besides, the “KINOMEscan binding TGFBR2” value in [3] was 0%. Moreover, the “KINOMEscan binding CSNK1D” value in data set [4] is listed as 35%. The “KINOMEscan binding BMPR1B” value in data set [5] was 0%. In data set [6], the “KINOMEscan binding PRKD1” value is listed as 99.4%. In data set [11], the “KINOMEscan binding MAPK9/JNK2” value was 14%. Also, the “KINOMEscan binding MAPK10/JNK3” value in data set [12] is given as 0%. The “KINOMEscan binding MTOR” value in [7] is recorded as 73%. Moreover, the “KINOMEscan binding TGFBR1” value in [13] is on record as 83%. In data set [8], the “KINOMEscan binding CIT” value is listed as 0%.

With `Clc1cccc(-c2nc(Nc3ccncc3)c3ccccc3n2)c1` [GW873004], in data set [1], the AK is given as 129.21. For the same compound, in data set [2], the “Nuclear Count” value was 66.61. For the same compound, the “KINOMEscan binding TGFBR2” value in [3] was 17%. The TGFBR1 binding in [14] is on record as 0.65 µM. Moreover, in data set [4], the “KINOMEscan binding CSNK1D” value is given as 12%. Further, the “KINOMEscan binding BMPR1B” value in data set [5] is 4%. In data set [6], the “KINOMEscan binding PRKD1” value was 47%. In addition, in [7], the “KINOMEscan binding MTOR” value is recorded as 36%. For the same compound, the “KINOMEscan binding CIT” value in data set [8] is listed as 57%.

In turn, `Cc1cccc(-c2nc(Nc3cccc(C(N)=O)c3)c3ccccc3n2)n1` [GW876019] showed an AK in data set [1] of 199.56. Also, the “Nuclear Count” value in data set [2] stood at 75.33. In addition, the “KINOMEscan binding TGFBR2” value in data set [3] was 15%. The “KINOMEscan binding CSNK1D” value in data set [4] is 8%. In addition, in [5], the “KINOMEscan binding BMPR1B” value is given as 0%. Moreover, the “KINOMEscan binding PRKD1” value in [6] is listed as 64%. In addition, in [7], the “KINOMEscan binding MTOR” value is reported as 35%. Moreover, the “KINOMEscan binding CIT” value in data set [8] is 45%.

In data set [1], `Cc1cccc(-c2nc(Nc3ccc4c(cnn4C)c3)c3ccccc3n2)n1` [GW876731] showed an AK of 73.05. In addition, the “Nuclear Count” value in data set [2] was determined as 107.18. For the same compound, the “KINOMEscan binding TGFBR2” value in [3] was 0%. Moreover, in [4], the “KINOMEscan binding CSNK1D” value was 50%. For the same compound, the “KINOMEscan binding BMPR1B” value in data set [5] was 0%. Further, the “KINOMEscan binding PRKD1” value in data set [6] is recorded as 99.2%. For the same compound, the “KINOMEscan binding MTOR” value in [7] was 0%. Also, the “KINOMEscan binding CIT” value in data set [8] is 12%.

For the compound `Cc1cccc(-c2nc(Nc3ccncc3)c3ccccc3n2)n1` [NK215], the “KINOMEscan TGFBR2” value in data set [3] (TGFBR2, Published KINOMEscan, ref original PKIS2 published data) is 95.7. Moreover, in data set [4] (CSNK1D, Published KINOMEscan, ref original PKIS2 published data), the “KINOMEscan CSNK1D” value is reported as 73. Also, the “KINOMEscan BMPR1B” value in [5] (BMPR1B, Published KINOMEscan, ref original PKIS2 published data) is given as 29. Also, the “KINOMEscan PRKD1” value in data set [6] (PRKD1, Published KINOMEscan, ref original PKIS2 published data) is reported as 86. Moreover, the “KINOMEscan MTOR” value in data set [7] (MTOR, Published KINOMEscan, ref original PKIS2 published data) is given as 50. In data set [8] (CIT, Published KINOMEscan, ref original PKIS2 published data), the “KINOMEscan CIT” value is listed as 91.1.

These data come from article PMC9851200, “Multiparameter phenotypic screening for endogenous TFEB and TFE3 translocation identifies novel chemical series modulating lysosome function” (Autophagy, 2022).
